Experimental findings from patent US9150617B2, “Immunoregulatory peptides and methods of use” (13 Therapeutics, Inc., priority 2009, dated 2015) are described below.

The subject of data set [1] is TNF-α secretion from RAW264.7 cells. Nature of the data set: Inhibition of TNF-α secretion from RAW264.7 cells stimulated with CpG-ODN (ELISA). Format: cell-based, murine. Conditions: for activity vis-à-vis P13 (inhibition of TNF-α after stimulation of RAW264.7 cells with CpG): SAR, compared with P13; for Inhibition of TNF-α secretion (percent inhibition): 4 hours (Table 3). On the procedure: (§1) RAW264.7 (murine monocyte/macrophage cells (American Type Culture Collection) were cultured at 37° C. in a 5% CO2 humidified incubator and grown in DMEM (Invitrogen Life Technologies) supplemented with 10% (v/v) heat-inactivated FCS, 1.5 mM L-glutamine, 100 U/ml penicillin, and 100 μg/ml streptomycin.
(§2) RAW264.7 cells were plated at 1.5×10^5 cells/well −3×10^5 cells/well in 48-well plates. After 24 hours, the cells were incubated with peptides at various concentrations at room temperature in triplicate either before, simultaneous with, or after activation with various PAMPs for 18 hours. Cell-free supernatants were analyzed for cytokines by ELISA, in quadruplicate. RAW264.7 cells were stimulated with either CpG-ODN (1 μg/ml or 1.25 μg/ml), LPS (about 1 ng/ml), Poly (I:C) (about 10 μg/ml), flagellin (about 5 ng/ml), or zymosan (about 10 μg/ml). Dose response curves were done with each PAMP to determine optimal stimulation concentration. For CpG-ODN stimulation, cells were incubated for 4 hours at 37° C., supernatants collected, and TNF-α measured by ELISA. Any cytokine involved in inflammatory disease mediated toll receptor signaling can be measured using similar assays.
The effect of several peptides on TNF-α secretion from RAW264.7 cells in response to stimulation by CpG-ODN was studied. Each peptide was initially tested at 3 concentrations, 37 μM, 22.2 μM, and 11.1 μM. […] The peptides were then tested at 11.1 μM, 7.4 μM, and 3.7 μM (Table 3). […] Cell viability was examined for each peptide at the concentrations tested for TNF-α inhibition.
(§3) Inhibition of TNF-α secretion by various T-peptides was examined. RAW264.7 cells were plated at 3×10^5 cells/well in 48-well plates. After 24 h the cells were incubated with peptide at various concentrations at room temperature in triplicate for 15 minutes and then stimulated with 1.25 ug/ml CpG-ODN or 1 ng/ml LPS. Cells were then incubated for 4 hours at 37° C., supernatants collected, and TNF-α measured by ELISA. Percent inhibition was calculated by comparing TNF-α secretion from cells incubated with peptide to control cells with no peptide treatment. The inhibition by peptides T3, T11, T21, T36, T37, T51 and T52 were compared to inhibition by an analogue of P13 having a sequence of nine arginine residues (SEQ ID NO: 379) at the C-terminus (P13-R^9; SEQ ID NO: 378). (Table 4).

The test system is the same in data set [2]. Nature of the data set: Inhibition of TNF-α secretion from RAW264.7 cells stimulated with LPS (ELISA). Format: cell-based, murine. Conditions: LPS Stimulation, 1 ng/ml LPS. On the procedure: as §1, §2, §3
A general note: An ELISA detects its analyte on a solid surface through an enzyme-linked reagent.

Another data set relates to mouse middle ear. Nature of the data set: Effects caused by peptide without added bacteria on mouse middle ear. It counts as in vivo. The settings on record: 10 μM, no bacteria, 3 days. On the procedure: Induction of otitis media: BALB/c (Bagg albino) mice, about 8-12 weeks of age, are anesthetized with a subcutaneous injection of xylazine & ketamine (about 0.1 mg/30 gm body weight) and their ears examined under the operating microscope to assure they are free of infection or perforation. One group of animals is injected with PBS (Phospho-buffered saline) in one ear and with about 10 μM of a peptide of Table 1 in the opposite ear, to determine the effect of peptide without added bacteria. A second group of animals receive about 5.0 μl of PBS plus heat-inactivated S. pneumoniae (about 10^9 CFU/ml) in one ear and about 5.0 μl of peptide (about 10 μM) plus heat-inactivated S. pneumoniae (about 10^9 CFU/ml) in the opposite ear. Injections are done through the tympanic membrane. Animals are killed about 3 days after bacterial injection and tissue is histologically processed to assess middle ear disease. Inflammation is quantified by measuring 1) area of fluid present in the middle ear; 2) number of cells in middle ear fluid; and 3) thickness of the tympanic membrane (TM) taken at a point away from the injection site. Data are obtained from mice (n=18) injected with PBS alone for each of the histological parameters measured, to serve as a control group.
To determine the effect of peptide without added bacteria, animals are injected in one ear with PBS alone, and the other ear with about 10 μM peptide. Paired t-tests are done comparing the effect of PBS alone with the effect of peptide for each of the three histological parameters: 1) area of fluid present in the middle ear; 2) number of cells in middle ear fluid; and 3) thickness of the tympanic membrane. […]
Five mice were injected in one ear with PBS and in the opposite ear with 10 μM peptide P13. Three days later the animals were killed, and the middle ears embedded, sectioned, stained and evaluated for fluid area, infiltrating cell number, and thickness of the tympanic membrane. […]

Data set [3] relates to tympanic membrane of BALB/c mice. Nature of the data set: Assay for crossing the tympanic membrane by FITC-labeled peptide. It counts as in vivo, mouse. Conditions: 10 μg/30 μl dropped onto ear with AOM, 10 minutes; fluorescent microscopy of middle ear fluid. On the procedure: Three BALB/c mice at 8-12 weeks of age were anesthetized with ketamine (100 mg/kg) and xylazine (20 mg/kg) prior to administration of bacteria. A ventral midline incision was made in the neck, and the bulla exposed after blunt dissection. The middle ear was inoculated through the bony wall with approximately 3.5 μl of a bacterial suspension (heat inactivated S. pneumoniae 10^10 CFU/ml) with a thin needle. Both the right and left ears received bacteria by bulla injection.
After 24 hours, animals received an otoscopic exam using an operating microscope. Mice were anesthetized as described above, and the tympanic membrane was inspected for the presence or absence of the following three criteria for acute otitis media (AOM): 1) middle ear effusion behind the tympanic membrane; 2) change in color of the tympanic membrane from clear to red or white (indicating inflammation and/or purulence in the middle ear); 3) change in position of the tympanic membrane from neutral to bulging or retracted.
Four ears met the criteria for AOM. FITC labeled peptide P13-R^9 (SEQ ID NO: 378) (10 μg/30 μl) was dropped onto the middle ear. The peptide was allowed to absorb for 10 minutes. After 10 minutes, the external ear canal was flushed twice, and blotted to get rid of any remaining peptide. […]

Setting [4] is: 7.1 μM peptide, CpG stimulation, 1.25 ug/ml CpG-ODN.
Setting [5] is: 11.1 μM peptide, CpG stimulation, 1.25 ug/ml CpG-ODN.
The mark [6] stands for this setting: 22 μM peptide, CpG stimulation, 1.25 ug/ml CpG-ODN.
The mark [7] stands for this setting: 11.1 μM peptide, 1 ug/ml CpG-ODN, 4 hours (Table 2).
[8] abbreviates: 22.2 μM peptide, 1 ug/ml CpG-ODN, 4 hours.

Ends that are not written are not given here.

For AIIKVYVYACIRRRRRRRRR [T52-R^9], the “Percent Inhibition of TNF-α secretion” value was determined as 97.8% in data set [1] (setting [4]), 99.2% in data set [1] (setting [5]) and 100% in data set [1] (setting [6]). Besides, in data set [1], the “activity vis-à-vis P13 (inhibition of TNF-α after stimulation of RAW264.7 cells with CpG)” value is “superior activity”.
Turning to AIVKLTVYACIRRRRRRRRR [T51-R^9], the “Percent Inhibition of TNF-α secretion” value in data set [1] (setting [4]) was 94%; in data set [1] (setting [5]), 98%; in data set [1] (setting [6]) it was 99.7%. Further, the “activity vis-à-vis P13 (inhibition of TNF-α after stimulation of RAW264.7 cells with CpG)” value in data set [1] is “superior activity”.
Turning to AIVKLTVYDCIRRRRRRRRR [T3-R^9], the “Percent Inhibition of TNF-α secretion” value in data set [1] (setting [4]) worked out at 85%; in data set [1] (setting [5]), 92%; in data set [1] (setting [6]), 99%; in data set [2] (7.4 uM peptide), 33%; in data set [2] (11.1 uM peptide), 65%; in data set [2] (22.2 uM peptide), 77%. Also, the “activity vis-à-vis P13 (inhibition of TNF-α after stimulation of RAW264.7 cells with CpG)” value in data set [1] was “superior activity”.
Regarding DIIKLTVYDCIRRRRRRRRR [T36-R^9], the “Percent Inhibition of TNF-α secretion” value in data set [1] (setting [4]) is 50%; in data set [1] (setting [5]), 70%; in data set [1] (setting [6]) it was 82%. Moreover, the “activity vis-à-vis P13 (inhibition of TNF-α after stimulation of RAW264.7 cells with CpG)” value in data set [1] is “superior activity”.
With DIVKLTVYACIRRRRRRRRR [T11-R^9], in data set [1], the “activity vis-à-vis P13 (inhibition of TNF-α after stimulation of RAW264.7 cells with CpG)” value is “superior activity”. Further, the “Percent Inhibition of TNF-α secretion” value in data set [2] (7.4 uM peptide) turned out to be 68%; in data set [2] (11.1 uM peptide), 81%; in data set [2] (22.2 uM peptide) it was 91%.
Turning to DIVKLTVYDCI [Peptide P13, DIVKLTVYDCI], in the data set with mouse middle ear, the “difference between PBS-injected ear and P13-injected ear in cell number” value is “no differences”; the “difference between PBS-injected ear and P13-injected ear in fluid area” value is recorded as “no differences”; the “difference between PBS-injected ear and P13-injected ear in tympanic membrane thickness” value is “no differences”.
As for DIVKLYVYDCIRRRRRRRRR [T21-R^9], the “Percent Inhibition of TNF-α secretion” value was 69% in data set [1] (setting [4]), 90% in data set [1] (setting [5]) and 98% in data set [1] (setting [6]). In data set [1], the “activity vis-à-vis P13 (inhibition of TNF-α after stimulation of RAW264.7 cells with CpG)” value is recorded as “superior activity”.
For DIVKVTVYDCIRRRRRRRRR [T37-R^9] the same measures were 46%, 87%, 93% and “superior activity”.
As to “FITC-labeled P13-R^9: FITC (Fluorescein isothiocyanate) labeled peptide P13-R^9 (SEQ ID NO: 378) (DIVKLTVYDCIRRRRRRRRR; also: FITC label)”, in data set [3], the “crossing the tympanic membrane” value was “crosses the tympanic membrane and associates with cells in middle ear fluid”.
Take “FTILLEEYFMYRGLLGLRIRRRRRRRRR [Peptide 103 (S19)-R^9]”: the “Inhibition of TNF-α secretion (percent inhibition)” value (shortened to “Inhibition … (percent inhibition)”) was 87% in data set [1] (7 μM peptide, 1 ug/ml CpG-ODN) and 93% in data set [1] (11 μM peptide, 1 ug/ml CpG-ODN). The “Percent Inhibition of TNF-α secretion” value is reported as 93% in data set [1] (setting [7]) and 99% in data set [1] (setting [8]).
Turning to “ILLEEYFMYRGLLGLRIRRRRRRRRR [Peptide 105 (S21)-R^9]”, the “Inhibition … (percent inhibition)” value in data set [1] (7 μM peptide, 1 ug/ml CpG-ODN) came out at 52%; in data set [1] (11 μM peptide, 1 ug/ml CpG-ODN), 62%. The “Percent Inhibition of TNF-α secretion” value in data set [1] (setting [7]) was 62%; in data set [1] (setting [8]), 91%.
For “LLEEYFMYGLLGLRIRRRRRRRRR [Peptide 106 (S22)-R^9]”, the “Inhibition … (percent inhibition)” value in data set [1] (7 μM peptide, 1 ug/ml CpG-ODN) was 53%; in data set [1] (11 μM peptide, 1 ug/ml CpG-ODN) it was 70%. In addition, the “Percent Inhibition of TNF-α secretion” value in data set [1] (setting [7]) came out at 70%; in data set [1] (setting [8]), 92%.
For “TILLEEYFMYRGLLGLRIRRRRRRRRR [Peptide 104 (S20)-R^9]”, the “Inhibition … (percent inhibition)” value stood at 60% in data set [1] (7 μM peptide, 1 ug/ml CpG-ODN) and 74% in data set [1] (11 μM peptide, 1 ug/ml CpG-ODN). Further, the “Percent Inhibition of TNF-α secretion” value in data set [1] (setting [7]) stood at 74%; in data set [1] (setting [8]) it was 93%.
